This note sets out measurements from PubChem BioAssay AID278 (DTP/NCI, 2004).

Values joined by “and” are separate entries in the source; they are usually repeats but may differ in a detail not shown here. Equal values may be shown once. Results filed as inconclusive are left out.

This experiment concerns nude mice, A549 intrarenal xenograft, tumor weight change. Kind of experiment: NCI In Vivo Anticancer Drug Screen. Data for tumor model A549 Human Adenocarcinoma of Lung with characteristics of Type II Alveolar Epithelial cells (intrarenal inoculation) in NU/NU BALB/C (nude) mice. The following applies: endpoint: mean tumor weight change, schedule: Q04DX003 (ip), higher = larger tumour. How it is done: The antitumor activity of compounds was measured in mice bearing transplantable tumors. Survival or tumor size were measured and the results are expressed as the measurement made in the treated group (T) divided by the measurement made in the vehicle treated control group (C). The tumor model used in this assay is A549 Human Adenocarcinoma of Lung with characteristics of Type II Alveolar Epithelial cells (intrarenal inoculation) in NU/NU BALB/C (nude) mice

Setting [1] is: dose: 50.0 mg/kg/injection, vehicle: saline with Tween-80.
Where [2] appears, read: dose: 200.0 mg/kg/injection, vehicle: saline with Tween-80.
Setting [3] is: dose: 25.0 mg/kg/injection, vehicle: saline with Tween-80.
[4] abbreviates: dose: 100.0 mg/kg/injection, vehicle: saline with Tween-80.
[5] abbreviates: dose: 150.0 mg/kg/injection, vehicle: saline with Tween-80.
Setting [6] is: dose: 300.0 mg/kg/injection, vehicle: saline with Tween-80.
The mark [7] stands for this setting: dose: 600.0 mg/kg/injection, vehicle: saline with Tween-80.
[8] abbreviates: dose: 50.0 mg/kg/injection, vehicle: water.

In the case of `Cc1ccc(C(=Nc2ccccc2)N=P(c2ccccc2)(c2ccccc2)c2ccccc2)cc1`, the T/C was 90 % of control under setting [1] and 82 % of control under setting [2].
As for `[NH-]C(CCC(N)=O)C(=O)O.[NH-]C(CCC(N)=O)C(=O)O.[Zn+2]` (configuration not stated), the T/C under setting [3] was 83 % of control, the T/C under setting [1] was 29 % of control and the T/C under setting [4] was 54 % of control.
As to `CCC1(O)C(=O)OCc2c1cc1n(c2=O)Cc2cc3cc4c(cc3nc2-1)OCO4` (configuration not stated), the T/C (dose: 4.0 mg/kg/injection, vehicle: saline with Tween-80) was 6 % of control.
Regarding `CC(=O)c1cccc(NC2C(N)C(NC(=O)N(C)C)(C(C)O)C(C)(O)C2(O)COC(=O)c2c(C)cccc2O)c1` (configuration not stated), the T/C was 183 % of control (dose: 6.25 mg/kg/injection, vehicle: suspension in saline); 121 % of control (dose: 12.5 mg/kg/injection, vehicle: suspension in saline); 120 % of control (dose: 25.0 mg/kg/injection, vehicle: suspension in saline); 68 % of control (dose: 50.0 mg/kg/injection, vehicle: suspension in saline).
Regarding `S=C(NCNC(=S)c1ccncc1)c1ccncc1`, the T/C was 420 % of control under setting [5], 260 % of control under setting [6] and 317 % of control under setting [7].
With `CC1C(c2ccccc2)OC(N2CCOCC2)C(C)(C)CN1C` (configuration not stated), the T/C runs as follows: under setting [5], 112 % of control; under setting [6], 72 % of control.
In the case of `O=NNc1ccc(Cl)cn1`, the T/C by setting is: (dose: 5.0 mg/kg/injection, vehicle: water) 63 % of control; (dose: 6.25 mg/kg/injection, vehicle: water) 113 % of control; (dose: 10.0 mg/kg/injection, vehicle: water) 68 % of control; (dose: 12.5 mg/kg/injection, vehicle: water) 62 % of control; (dose: 20.0 mg/kg/injection, vehicle: water) 100 % of control; (dose: 25.0 mg/kg/injection, vehicle: water) 61 % of control. For the same molecule, the T/C is, setting by setting: (dose: 40.0 mg/kg/injection, vehicle: water) 57 % of control; under setting [8], 26 % of control.
Turning to `O=C1C2CC(Cl)C(SSC3CC4C(=O)N(SC(Cl)(Cl)C(Cl)Cl)C(=O)C4CC3Cl)CC2C(=O)N1SC(Cl)(Cl)C(Cl)Cl` (configuration not stated), the T/C reads like this: under setting [3], 123 % of control; under setting [1], 78 % of control; under setting [4], 98 % of control; under setting [2], 73 % of control.
On to `CN(C)c1ccc2c(Nc3ccc(NS(C)(=O)=O)cc3)c3ccc(N(C)C)cc3nc2c1`, for which the T/C (dose: 50.0 mg/kg/injection, vehicle: Klucel (hydroxypropylcellulose) (HPC)) is 116 % of control; the T/C (dose: 100.0 mg/kg/injection, vehicle: Klucel (hydroxypropylcellulose) (HPC)) is 39 % of control; the T/C (dose: 200.0 mg/kg/injection, vehicle: Klucel (hydroxypropylcellulose) (HPC)) was 41 % of control.
As to `Nc1ccn([C@@H](C=O)C[C@@H](C=O)CO)c(=O)n1`, the T/C reads like this: (dose: 37.5 mg/kg/injection, vehicle: saline with Tween-80) 42 % of control; (dose: 75.0 mg/kg/injection, vehicle: saline with Tween-80) 245 % of control; under setting [5], 66 % of control; under setting [6], 216 % of control and 82 % of control; under setting [7], 48 % of control; (dose: 1200.0 mg/kg/injection, vehicle: saline with Tween-80) 26 % of control.
For the molecule `O=S(=O)(O)c1cc(N=C=S)ccc1/C=C/c1ccc(N=C=S)cc1S(=O)(=O)O`, the T/C (dose: 3.75 mg/kg/injection, vehicle: saline) is 107 % of control; the T/C (dose: 7.5 mg/kg/injection, vehicle: saline) is 64 % of control; the T/C (dose: 30.0 mg/kg/injection, vehicle: saline) is 118 % of control.
In the case of `NC(=S=O)C(N)=S=O`, the T/C reads like this: (dose: 125.0 mg/kg/injection, vehicle: saline with Tween-80) 97 % of control; (dose: 250.0 mg/kg/injection, vehicle: saline with Tween-80) 98 % of control; (dose: 500.0 mg/kg/injection, vehicle: saline with Tween-80) 100 % of control.
For `CC1Oc2cc3c(-c4c(O)cc(O)c5c(O)c6c(cc45)OC(C)C(C)C6=O)c(O)cc(O)c3c(O)c2C(=O)C1C` (configuration not stated), the T/C by setting is: (dose: 0.19 mg/kg/injection, vehicle: suspension in saline) 60 % of control; (dose: 0.38 mg/kg/injection, vehicle: suspension in saline) 51 % of control; (dose: 0.75 mg/kg/injection, vehicle: suspension in saline) 83 % of control; (dose: 3.0 mg/kg/injection, vehicle: suspension in saline) 63 % of control; (dose: 6.0 mg/kg/injection, vehicle: suspension in saline) 77 % of control.
`Cc1nc(C(Cl)(Cl)Cl)[nH]c(=O)c1SCCO`: the T/C is, setting by setting: (dose: 150.0 mg/kg/injection, vehicle: distilled water + Tween-80 + alcohol) 31 % of control; (dose: 150.0 mg/kg/injection, vehicle: distilled water + alcohol) 50 % of control; (dose: 300.0 mg/kg/injection, vehicle: distilled water + Tween-80 + alcohol) 181 % of control; (dose: 300.0 mg/kg/injection, vehicle: distilled water + alcohol) 26 % of control; (dose: 600.0 mg/kg/injection, vehicle: distilled water + alcohol) 2 % of control.
Turning to `O=NNc1cccnc1`, the T/C is, setting by setting: under setting [8], 56 % of control and 75 % of control; (dose: 100.0 mg/kg/injection, vehicle: water) 80 % of control.
Turning to `CC(CNC(=O)C12CC3CC(CC(C3)C1)C2)NC(=O)C12CC3CC(CC(C3)C1)C2` (configuration not stated), the T/C (dose: 300.0 mg/kg/injection, vehicle: DMSO) is 106 % of control.
For the molecule `COc1ccc2oc(-c3ccc(Cl)cc3)c(N3CCN(C)CC3)c2c1`, the T/C by setting is: (dose: 75.0 mg/kg/injection, vehicle: saline) 21 % of control; (dose: 150.0 mg/kg/injection, vehicle: saline) 24 % of control.
For the molecule `CC(C)N1C(=O)N(Cl)C2C1N(Cl)C(=O)N2Cl` (configuration not stated), the T/C reads like this: (dose: 12.5 mg/kg/injection, vehicle: saline with Tween-80) 51 % of control and 76 % of control; under setting [3], 18 % of control.
With `COc1ccc(C=C(C(=O)CCN(C)C)C(=O)CCN(C)C)cc1`, the T/C (dose: 50.0 mg/kg/injection, vehicle: saline) was 96 % of control and the T/C (dose: 200.0 mg/kg/injection, vehicle: saline) is 101 % of control.
`CC[C@]1(O)C[C@H]2CN(CCc3c([nH]c4ccccc34)[C@@](C(=O)OC)(c3cc4c(cc3OC)N(C)[C@H]3[C@@](O)(C(=O)OC)[C@H](OC(C)=O)[C@]5(CC)C=CCN6CC[C@]43[C@@H]65)C2)C1`: the T/C was -2 % of control (dose: 0.67 mg/kg/injection, vehicle: Klucel (hydroxypropylcellulose) (HPC)) and -49 % of control (dose: 1.0 mg/kg/injection, vehicle: Klucel (hydroxypropylcellulose) (HPC)).
`Cc1ccc(/C=C/C(=O)/C=C/c2ccc(C)o2)o1`: the T/C is, setting by setting: (dose: 100.0 mg/kg/injection, vehicle: DMSO) 123 % of control; (dose: 200.0 mg/kg/injection, vehicle: DMSO) 73 % of control; (dose: 400.0 mg/kg/injection, vehicle: DMSO) 78 % of control; (dose: 800.0 mg/kg/injection, vehicle: DMSO) 68 % of control.
